Experiments:
[1] = test system: panel of multidrug-resistant HIV-1 strains; assay: microbe, parasite or virus in culture; format: cell-based; settings: for fold-changes in EC50: against all MDR HIV-1 viruses compared to wild type
HIV-1LAI = assay: Antiviral MTT assay in MT-2 cells exposed to HIV-1LAI; format: cell-based; settings: Human immunodeficiency virus 1, MT2

IC50 (HIV-1LAI) [nM] | SMILES | fold-changes in EC50 [1] | EC50 ([1]; Human immunodeficiency virus 1) [nM]
 | COC(=O)N[C@@H]1CO[C@@H]2C[C@H](OC(=O)N[C@@H](Cc3ccccc3)[C@H](O)CN(CC(C)C)S(=O)(=O)c3ccc(OC)cc3)C[C@H]12 [Inhibitor 3c] | < 3 | 
 | COC(=O)N[C@H]1CO[C@@H]2C[C@H](OC(=O)N[C@@H](Cc3ccccc3)[C@H](O)CN(CC(C)C)S(=O)(=O)c3ccc(OC)cc3)C[C@H]12 [Inhibitor 3d] | increased by a factor of at least three | 15 to 24
30 | CC(C)CN(C[C@@H](O)[C@H](Cc1ccccc1)NC(=O)O[C@H]1CCOC1)S(=O)(=O)c1ccc(N)cc1 [amprenavir] |  | 

Reference: paper PMC3433276 (Bioorganic & medicinal chemistry letters, 2012)
